Laboratory results: patent publication US20250367129A1, “Lipid Compounds and Uses Thereof” (Pfizer Inc., priority 2022, published 2025)

How the values were obtained:
HEK293F cells = assay: In vitro expression of novel ionizable lipid nanoparticles, high content imaging (CA HA modFlu mRNA); type: cell-based; conditions: LNP with CA HA modFlu mRNA
Outline: (§1)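 Lipid nanoparticles of ionizable lipid, cholesterol, DSPC and ALC-0159 (about 46.3:42.7:9.4:1.6 molar), N:P about 6:1, carrying mRNA, dosed onto cells overnight at 37° C., 5% CO2. Cells fixed and stained with Hoechst plus antibody to encoded protein; nuclei and antigen-positive cells counted by high-content imaging.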

Hela cells [1] = assay: as above; type: cell-based; conditions: LNP with CA HA modFlu mRNA
Outline: as §1

[2] = LNP size and size distribution by dynamic light scattering (WISC HA modFlu mRNA LNPs); type: physicochemical; conditions: DLS; for Size (nm): LNP of the ionizable lipid:cholesterol:DSPC:PEG-Lipid about 46.3:42.7:9.4:1.6 with WISC HA modFlu mRNA; for PDI: LNP with WISC HA modFlu mRNA
Description: (§2) Lipid nanoparticles were prepared and tested according to the general procedures described in U.S. Pat. No. 9,737,619 (PCT Pub. No. WO2015/199952) and U.S. Pat. No. 10,166,298 (PCT Pub. No. WO 2017/075531) and PCT Pub. No. WO2020/146805. The novel ionizable lipids of the invention, cholesterol, DSPC and PEG-Lipid were solubilized in Ethanol at a molar ratio of about 46.3:42.7:9.4:1.6. Lipid nanoparticles (LNP) were prepared at a total lipid to mRNA ratio of about 23:1. In short, the mRNA (WISC HA modFlu) was diluted in buffer. Syringe pumps were used to mix the lipid solution with the mRNA solution. The ethanol was removed, and external buffer replaced with another buffer (e.g., Tris) by dialysis. Finally, the lipid nanoparticle size and size distribution were determined by dynamic light scattering using an Unchained Labs Stunner (Unchained Labs, USA). RNA encapsulation efficiency was determined using the Quant-iT RiboGreen RNA assay (Life Technologies, USA). Briefly, LNPs were incubated with RiboGreen dye (200-fold dilution per manufactures' instruction) in the presence and absence of 1% Triton-X 100 and fluorescence intensities (Excitation/Emission: 485/528 […]) were measured for unencapsulated RNA and total RNA after release from LNPs by Triton-X 100.

[3] = Encapsulation efficiency, RiboGreen RNA quantitation assay (CA HA modFlu mRNA LNPs); type: physicochemical; conditions: LNP with CA HA modFlu mRNA
Outline: (§3)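 LNPs of ionizable lipid:cholesterol:DSPC:ALC-0159 (molar ratio about 46.3:42.7:9.4:1.6) formed by syringe-pump mixing of ethanolic lipids with mRNA at N:P about 6:1, then dialysed into buffer (e.g., Tris) and filtered. Size and PDI measured by DLS; total RNA and encapsulation efficiency by RiboGreen.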

[4] = RNA encapsulation efficiency, Quant-iT RiboGreen RNA assay (WISC HA modFlu mRNA LNPs); type: physicochemical; conditions: LNP with WISC HA modFlu mRNA
Description: as §2

[5] = LNP size and polydispersity index by Malvern Zetasizer dynamic light scattering (CA HA modFlu mRNA LNPs); type: physicochemical; conditions: DLS; for Size (nm): LNP of the ionizable lipid:cholesterol:DSPC:ALC-0159 about 46.3:42.7:9.4:1.6, N:P about 6:1, CA HA modFlu mRNA; for PDI: LNP with CA HA modFlu mRNA
Outline: as §3

Hek293T cells = assay: In vitro expression of encoded gene of interest after LNP dosing, high content imaging (WISC HA modFlu mRNA); type: cell-based; conditions: LNP with WISC HA modFlu mRNA, overnight incubation
Description: as §2
(§4) Plated Hek293T or Hela cells were dosed with lipid nanoparticles in a total volume of 40 μl cell culture media and incubated overnight at 37° C. and 5% CO2. After fixation with 4% paraformaldehyde in PBS cells were washed in PBS containing 0.3% Triton-X100 and 3% BSA (w/v), followed by nuclear staining with Hoechst and antibody staining for the encoded gene of interest. Nuclear count and identification of cells stained positive for gene of interest was done on an Opera Phenix high content imager (PerkinElmer, USA).

Hela cells [6] = assay: as above; type: cell-based; conditions: LNP with WISC HA modFlu mRNA, overnight incubation
Description: as §2, §4

| SMILES | EC50 Hek293F (ng/well) (HEK293F cells) | EC50 Hela (ng/well) (Hela cells [1]) | Size (nm) [2] [nm] | PDI [2] | EE % [3] [%] | EE % [4] [%] | Size (nm) [5] [nm] | PDI [5] | EC50 Hek293T (ng/well) (Hek293T cells) | EC50 Hela (ng/well) (Hela cells [6]) |
| --- | --- | --- | --- | --- | --- | --- | --- | --- | --- | --- |
| CCCCCCCC(CCCCCCC)C(=O)O[C@@H]1CC2(CCN(CCCCO)CC2)C[C@H]1OC(=O)C(CCCCCCC)CCCCCCC (racemic) [Example 51, rac-(2R,3R)-8-(4-Hydroxybutyl)-8-azaspiro[4.5]decane-2,3-diyl bis(2-heptylnonanoate)] | 0.27 | 0.64 | 72 | 0.03 | 99 | 96 | 58 | 0.030 | 5.3 | 10.7 |
| CCCCCCCC(CCCCCCC)C(=O)OCC1(COC(=O)C(CCCCCCC)CCCCCCC)CCC2(CCN(CCCCO)CC2)CC1 [Example 1, (3-(4-hydroxybutyl)-3-azaspiro[5.5]undecane-9,9-diyl)bis(methylene) bis(2-heptylnonanoate)] | 1.7 | 1.2 | 76 | 0.04 | 100 | 99 | 78 | 0.050 | 13.9 | 18.3 |
| CCCCCCCC(CCCCCCC)C(=O)OCC(COC(=O)C(CCCCCCC)CCCCCCC)C1CCC2(CC1)CCN(CCCCO)CC2 [Example 2, 2-(3-(4-hydroxybutyl)-3-azaspiro[5.5]undecan-9-yl)propane-1,3-diyl bis(2-heptylnonanoate)] | 2.5 | 1.6 | 93 | 0.06 | 100 | 99 | 92 | 0.040 | 14.5 | 28.1 |
| CCCCCCCC(CCCCCCC)C(=O)OCC(COC(=O)C(CCCCCCC)CCCCCCC)N1CCC2(CCN(CCCCO)CC2)CC1 [Example 3, 2-(9-(4-Hydroxybutyl)-3,9-diazaspiro[5.5]undecan-3-yl)propane-1,3-diyl bis(2-heptylnonanoate)] | 2.8 | 1.7 | 152 | 0.07 | 100 | 99 | 90 | 0.040 | 11.9 | 18.4 |
| CCCCCC/C=C\CCCC(=O)OCC(COC(=O)C(CCCCCC)CCCCCCCC)N1CCC2(CCN(CCCCO)CC2)CC1 (centres unmarked) [Example 43, 3-((2-hexyldecanoyl)oxy)-2-(9-(4-hydroxybutyl)-3,9-diazaspiro[5.5]undecan-3-yl)propyl (Z)-dodec-5-enoate] | 33.3 | 14.2 |  |  | 99 |  | 89 | 0.111 |  |  |
| CCCCCCCCC(CCCCCC)C(=O)OCC(COC(=O)C(CCCCCCCC)CC1CCC1)N1CCC2(CCN(CCCCO)CC2)CC1 (centres unmarked) [Example 44, 3-((2-(cyclobutylmethyl)decanoyl)oxy)-2-(9-(4-hydroxybutyl)-3,9-diazaspiro[5.5]undecan-3-yl)propyl 2-hexyldecanoate] | 0.28 | 0.30 |  |  | 99 |  | 119 | 0.080 |  |  |
| CCCCCCCCCC(CCCC)C(=O)OCC(COC(=O)C(CCCCCC)CCCCCCCC)N1CCC2(CCN(CCCCO)CC2)CC1 (centres unmarked) [Example 45, 3-((2-hexyldecanoyl)oxy)-2-(9-(4-hydroxybutyl)-3,9-diazaspiro[5.5]undecan-3-yl)propyl 2-butylundecanoate] | 1.1 | 1.1 |  |  | 99 |  | 117 | 0.060 |  |  |
| CCCCCCCCCCCCCCCC(=O)OCC(COC(=O)CCC(CCCC)C(CCCC)CCCC)N1CCC2(CCN(CCCCO)CC2)CC1 (centres unmarked) [Example 46, 3-((4,5-dibutylnonanoyl)oxy)-2-(9-(4-hydroxybutyl)-3,9-diazaspiro[5.5]undecan-3-yl)propyl palmitate] | 24.6 | 1.7 |  |  | 99 |  | 92 | 0.090 |  |  |
| CCCCCCCC(CCCCCCC)C(=O)OCCC(CCOC(=O)C(CCCCCCC)CCCCCCC)N1CCC2(CCN(CCCCO)CC2)CC1 [Example 47, 3-(9-(4-hydroxybutyl)-3,9-diazaspiro[5.5]undecan-3-yl)pentane-1,5-diyl bis(2-heptylnonanoate)] | 5.9 | 4.6 |  |  | 99 |  | 147 | 0.080 |  |  |
| CCCCCCCC(CCCCCCC)C(=O)OCC(COC(=O)C(CCCCCCC)CCCCCCC)N1CCC2(CCN(CCCCCO)C2)CC1 [Example 48, 2-(2-(5-hydroxypentyl)-2,8-diazaspiro[4.5]decan-8-yl)propane-1,3-diyl bis(2-heptylnonanoate)] | 0.76 | 1.0 |  |  | 100 |  | 127 | 0.093 |  |  |
| CCCCCCCCC(CCCCCC)C(=O)OCC(COC(=O)C(CCCCCC)CCCCCCCC)N1CC2(CCN(CCCCCO)CC2)C1 (centres unmarked) [Example 49, 2-(7-(5-hydroxypentyl)-2,7-diazaspiro [3.5]nonan-2-yl)propane-1,3-diyl bis(2-hexyldecanoate)] | 0.41 | 1.4 |  |  | 99 |  | 160 | 0.110 |  |  |
| CCCCCCCCC(CCCCCC)C(=O)OCC(COC(=O)C(CCCCCC)CCCCCCCC)N1CCC2(CC1)CN(CCCCO)C2 (centres unmarked) [Example 50, 2-(2-(4-hydroxybutyl)-2,7-diazaspiro[3.5]nonan-7-yl)propane-1,3-diyl bis(2-hexyldecanoate)] | 0.56 | 0.74 |  |  | 99 |  | 120 | 0.046 |  |  |
